This test deals with T1, human recombinant P2X7 receptor (Homo sapiens, UniProt Q99572).
T1 construct: expressed in transfected cells
T1 sequence (Q99572 1-595): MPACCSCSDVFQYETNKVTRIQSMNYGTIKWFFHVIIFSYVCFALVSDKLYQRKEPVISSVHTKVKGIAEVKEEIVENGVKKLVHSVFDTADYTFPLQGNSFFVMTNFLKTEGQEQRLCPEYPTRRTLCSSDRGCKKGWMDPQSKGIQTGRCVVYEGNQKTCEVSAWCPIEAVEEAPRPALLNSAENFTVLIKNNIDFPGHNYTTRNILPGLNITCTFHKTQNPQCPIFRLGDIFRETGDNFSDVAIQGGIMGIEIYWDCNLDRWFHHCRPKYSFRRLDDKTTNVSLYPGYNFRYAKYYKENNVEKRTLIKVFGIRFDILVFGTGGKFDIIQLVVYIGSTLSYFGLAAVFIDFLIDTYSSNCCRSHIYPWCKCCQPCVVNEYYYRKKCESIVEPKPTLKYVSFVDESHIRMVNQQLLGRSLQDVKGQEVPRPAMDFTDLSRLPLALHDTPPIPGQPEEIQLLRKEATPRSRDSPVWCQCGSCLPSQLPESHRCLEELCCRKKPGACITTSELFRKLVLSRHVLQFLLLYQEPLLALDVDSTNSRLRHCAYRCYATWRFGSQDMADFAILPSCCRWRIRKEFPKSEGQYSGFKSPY
As to the kind of experiment: YO-PRO assay (YO-PRO-1 uptake) in HEK cells stably expressing P2X7. The class given is cell-based. The note with it: HEK-293 cells expressing human recombinant P2X7 receptor; ATP 250 μM, 90 minutes; YO-PRO-1 fluorescence (FLIPR tetra); read-out: IC50 (antagonistic activity with respect to the P2X7 receptor). On the procedure: Cell line generation was performed in general according to established molecular cloning protocols. Specifically, RNA was extracted from human whole blood using the Qiagen RNeasy kit (Qiagen, CH) according to the manufacturer's instructions. Subsequently cDNA was made (Superscript II, Invitrogen AG, CH) and the human P2X7 gene (genbank ref. BC011913) was amplified with the following primers: [NT] and [NT] The amplified sequence was subsequently ligated into a pcDNA3.1 (+) NotI, NheI digested plasmid. […] Following a 24 h exposure to DNA, cells were trypsinized and re-seeded at low density in the presence of 250 μg Geneticin. Geneticin resistant cells were then selected during two consecutive rounds of cloning by serial limiting dilution with visual inspection. Individual clones were screened for P2X7 expression by applying ATP and recording the resultant uptake of YO-[…]. Specific cell clones were chosen based on RNA and protein expression. HEK cells stably expressing P2X7 were used to screen drugs using the YO-[…] assay. Cells were grown to confluency in adherent culture at 37° C. in a humidified 5% CO2 incubator (split 1/5 every 3-4 days with DMEM, 10% FCS, 1% Penicillin/Streptomycin, 250 μg/ml Geneticin). Adherent cells were detached by incubation with Trypsine (1 ml per 165 cm^2 dish) for 2 minutes, then washed off with 10 ml PBS (without Mg^2+ and Ca^2+), and resuspended in DMEM, 10% FCS, 1% Penicillin/Streptomycin, no Geneticin. 10'000 cells per well (48 hours before the assay) or 25'000 cells per well (Vi-cell XR (Beckman Coulter) (24 hours before the assay) in 50 μl full medium were seeded on 384-well black-wall, clear bottom plates, that were coated before with 10 μl per well Poly-L-Lysine, incubated for 30-60 minutes at 37° C. and washed once with PBS. Medium was removed from cells and 50 μl of assay buffer containing 0.5 μM YO-[…] was added into the wells. Solutions of antagonist compounds were prepared by serial dilutions of a 10 mM DMSO solution of the antagonist into PBS using a BioMek (Beckman Coulter). Each concentration was performed in duplicate. […] During this time period, four time points were taken. Each time point comprised the average of several measurements made within a few seconds. […] The FLIPR tetra was equipped with Molecular Devices Screen Works system control software to define and run experimental protocols. […] For IC50 measurements the maximum intensity is plotted against the concentration of compound to determine IC50 values.

pIC50: −log10 of the molar value.

Broadly, the pIC50 is the negative decadic logarithm of the IC50, by convention in mol/L. On to `CN(C)c1nccc(Oc2ccc(Cl)c(C(=O)NCC3(O)CCCCC3)c2)n1` [Example 117, 2-Chloro-5-(2-dimethylamino-pyrimidin-4-yloxy)-N-(1-hydroxy-cyclohexylmethyl)-benzamide], for which the pIC50 was 6.37.

On to `CN(c1ccc(Cl)c(C(=O)NCC2(O)CCCC2)c1)c1ccnc(=O)[nH]1` [Example 50, 2-Chloro-N-(1-hydroxy-cyclopentylmethyl)-5-[methyl-(2-oxo-2,3-dihydro-pyrimidin-4-yl)-amino]-benzamide], for which the negative-log IC50 (pIC50) is 6.59.

As to `CC(C)CN(c1ccc(Cl)c(C(=O)NCC2(O)CCCCC2)c1)c1ccnc(Cl)n1` [Example 26, 2-Chloro-5-[(2-chloro-pyrimidin-4-yl)-isobutyl-amino]-N-(1-hydroxy-cyclohexylmethyl)-benzamide], the pIC50 is 6.50.

In the case of `CN(c1ccccc1)c1ccc(Cl)c(C(=O)NCC2(O)CCCCC2)c1` [Example 2, 2-Chloro-N-(1-hydroxy-cyclohexylmethyl)-5-(methyl-phenyl-amino)-benzamide], the negative-log IC50 (pIC50) is 6.50.

As for `CSc1ccnc(Nc2ccc(Cl)c(C(=O)NCC3(O)CCCCC3)c2)n1` [Example 72, 2-Chloro-N-(1-hydroxy-cyclohexylmethyl)-5-(4-methylsulfanyl-pyrimidin-2-ylamino)-benzamide], the pIC50 was 5.84.

With `O=C(NCC1(O)CCCCC1)c1cc(Cc2cc[nH]c(=O)n2)ccc1Cl` [Example 147, 2-Chloro-N-(1-hydroxy-cyclohexylmethyl)-5-(2-oxo-1,2-dihydro-pyrimidin-4-ylmethyl)-benzamide], the pIC50 was 6.91.

For `COC1(CNC(=O)c2cc(N(C)c3ccnc(Cl)n3)ccc2Cl)CCCCC1` [Example 51, 2-Chloro-5-[(2-chloro-pyrimidin-4-yl)-methyl-amino]-N-(1-methoxy-cyclohexylmethyl)-benzamide], the negative-log IC50 (pIC50) was 6.34.

For `CN(c1ccc(Cl)c(C(=O)NCC2(O)CCCCCCC2)c1)c1ccnc(=O)[nH]1` [Example 48, 2-Chloro-N-(1-hydroxy-cyclooctylmethyl)-5-[methyl-(2-oxo-2,3-dihydro-pyrimidin-4-yl)-amino]-benzamide], the pIC50 was 7.82.

Take `COc1ccc(N(C)c2ccc(Cl)c(C(=O)NCC3(O)CCCCC3)c2)nn1` [Example 91, 2-Chloro-N-(1-hydroxy-cyclohexylmethyl)-5-[(6-methoxy-pyridazin-3-yl)-methyl-amino]-benzamide]: the pIC50 is 6.45.

As for `O=C(NCC1(O)CCCCC1)c1cc(Nc2ncccn2)ccc1Cl` [Example 69, 2-Chloro-N-(1-hydroxy-cyclohexylmethyl)-5-(pyrimidin-2-ylamino)-benzamide], the pIC50 was 6.49.

For the molecule `CNc1cccc(Oc2ccc(Cl)c(C(=O)NCC3(O)CCCCC3)c2)n1` [Example 109, 2-Chloro-N-(1-hydroxy-cyclohexylmethyl)-5-(6-methylamino-pyridin-2-yloxy)-benzamide], the pIC50 is 7.28.

`O=C(NCC1(O)CCCCC1)c1cc(Oc2cncc(Cl)n2)ccc1Cl` [Example 122, 2-Chloro-5-(6-chloro-pyrazin-2-yloxy)-N-(1-hydroxy-cyclohexylmethyl)-benzamide]: the negative logarithm of the IC50 (pIC50) is 7.00.

Take `COCCN(c1ccc(Cl)c(C(=O)NCC2(O)CCCCC2)c1)c1ccnc(Cl)n1` [Example 32, 2-Chloro-5-[(2-chloro-pyrimidin-4-yl)-(2-methoxy-ethyl)-amino]-N-(1-hydroxy-cyclohexylmethyl)-benzamide]: the pIC50 is 6.27.

As to `O=C(NCC1(O)CCCCC1)c1cc(N(CCOc2ccccc2)c2cc[nH]c(=O)n2)ccc1Cl` [Example 39, 2-Chloro-N-(1-hydroxy-cyclohexylmethyl)-5-[(2-oxo-1,2-dihydro-pyrimidin-4-yl)-(2-phenoxy-ethyl)-amino]-benzamide], the negative logarithm of the IC50 (pIC50) was 6.42.

Turning to `CC(C)CN(c1ccc(Cl)c(C(=O)NCC2(O)CCCCC2)c1)c1cc[nH]c(=O)n1` [Example 27, 2-Chloro-N-(1-hydroxy-cyclohexylmethyl)-5-[isobutyl-(2-oxo-1,2-dihydro-pyrimidin-4-yl)-amino]-benzamide], the pIC50 was 7.52.

Take `CCN(c1ccc(Cl)c(C(=O)NCC2(O)CCCCC2)c1)c1ccnc(Cl)n1` [Example 20, 2-Chloro-5-[(2-chloro-pyrimidin-4-yl)-ethyl-amino]-N-(1-hydroxy-cyclohexylmethyl)-benzamide]: the pIC50 was 6.64.

Turning to `O=C(NCC1(O)CCCCC1)c1cc(Nc2ccnc(Cl)n2)ccc1Cl` [Example 10, 2-Chloro-5-(2-chloro-pyrimidin-4-ylamino)-N-(1-hydroxy-cyclohexylmethyl)-benzamide], the pIC50 is 6.05.

On to `CSc1ccnc(N(C)c2ccc(Cl)c(C(=O)NCC3(O)CCCCC3)c2)n1` [Example 73, 2-Chloro-N-(1-hydroxy-cyclohexylmethyl)-5-[methyl-(4-methylsulfanyl-pyrimidin-2-yl)-amino]-benzamide], for which the pIC50 is 6.49.

As to `CN(c1ccc(Cl)c(C(=O)NCC2(CO)CCCCC2)c1)c1ccnc(=O)[nH]1` [Example 56, 2-Chloro-N-(1-hydroxymethyl-cyclohexylmethyl)-5-[methyl-(2-oxo-2,3-dihydro-pyrimidin-4-yl)-amino]-benzamide], the pIC50 is 7.13.

For `O=C(NCC1(O)CCCCC1)c1cc(Cn2ccc(=O)[nH]c2=O)ccc1Cl` [Example 144, 2-Chloro-5-(2,4-dioxo-3,4-dihydro-2H-pyrimidin-1-ylmethyl)-N-(1-hydroxy-cyclohexylmethyl)-benzamide], the negative-log IC50 (pIC50) is 5.86.

As to `O=C(NCC1(O)CCCCC1)c1cc([S+]([O-])c2ccccn2)ccc1Cl` (racemic) [Example 133, rac-2-Chloro-N-(1-hydroxy-cyclohexylmethyl)-5-(pyridine-2-sulfinyl)-benzamide], the negative logarithm of the IC50 (pIC50) was 6.58.

Turning to `CC(C)N(c1ccc(Cl)c(C(=O)NCC2(O)CCCCC2)c1)c1cc[nH]c(=O)n1` [Example 25, 2-Chloro-N-(1-hydroxy-cyclohexylmethyl)-5-[isopropyl-(2-oxo-1,2-dihydro-pyrimidin-4-yl)-amino]-benzamide], the negative-log IC50 (pIC50) was 6.96.

With `O=C(NCC1(O)CCCCC1)c1cc(Nc2cccc(=O)[nH]2)ccc1Cl` [Example 94, 2-Chloro-N-(1-hydroxy-cyclohexylmethyl)-5-(6-oxo-1,6-dihydro-pyridin-2-ylamino)-benzamide], the negative logarithm of the IC50 (pIC50) is 6.80.

As for `Cn1c(Nc2ccc(Cl)c(C(=O)NCC3(O)CCCCC3)c2)cccc1=O` [Example 96, 2-Chloro-N-(1-hydroxy-cyclohexylmethyl)-5-(1-methyl-6-oxo-1,6-dihydro-pyridin-2-ylamino)-benzamide], the pIC50 was 6.91.

On to `O=C(NCC1(O)CCCCC1)c1cc(Oc2cccnc2)ccc1Cl` [Example 107, 2-Chloro-N-(1-hydroxy-cyclohexylmethyl)-5-(pyridin-3-yloxy)-benzamide], for which the pIC50 is 7.15.

As for `O=C(NCC1(O)CCCCC1)c1cc(Oc2cccnn2)ccc1Cl` [Example 130, 2-Chloro-N-(1-hydroxy-cyclohexylmethyl)-5-(pyridazin-3-yloxy)-benzamide], the pIC50 is 7.17.

As for `CN(c1ccc(Cl)c(C(=O)NCC2(O)CCCCC2)c1)c1ccnc(Cl)n1` [Example 11, 2-Chloro-5-[(2-chloro-pyrimidin-4-yl)-methyl-amino]-N-(1-hydroxy-cyclohexylmethyl)-benzamide], the negative-log IC50 (pIC50) is 6.74.

For the molecule `O=C(NCC1(O)CCCCC1)c1cc(Nc2ccccn2)ccc1Cl` [Example 92, 2-Chloro-N-(1-hydroxy-cyclohexylmethyl)-5-(pyridin-2-ylamino)-benzamide], the negative-log IC50 (pIC50) was 7.09.
